The subject of test [1] is osteoblastic cell strain MC3T3-E1. The experiment in a line: Calcified matrix formation (alizarin red) of cultured osteoblastic cell on differentiation medium. The class given is cell-based, mouse. How it is done: Using an osteoblastic cell strain MC3T3-E1 originating from a mouse skull bone, an action to osteoblactic cell differentiation was checked. MC3T3-E1 cell was cultured on α-MEM (growth medium) containing 5% fetal bovine serum (FBS) and 10 μg/ml gentamicin. When the cell became confluent, the cell was collected using 0.25% trypsin solution, and was subjected to seeding to a 48-well plate at 1×10^4/0.5 mL/well with the growth medium. After 24 hours passed from the cultivation, the culture medium was replaced with a growth medium (differentiation medium) containing 50 μg/mL ascorbic acid, 10 mmol/L β-glycerosphoric acid, and 10 nmol/L dexamethasone. At the same time, CS-A, CS-B, CS-C, CS-E, CS-H or CPS was added to the medium. After 16 days passed from when the medium was replaced with the differentiation medium, a culture supernatant was eliminated, the cell was rinsed by PBS (−), dissolved by 1% Nonidet P-40 (NP-40, registered trademark), and a cell lysate was collected. The cell on a plate was fixed by 15% formalin, a calcified matrix was dyed by 40 mmol/L alizarin red dyeing (pH 4.2)[…], and rinsed by pure water. Alizarin red pigments in the plate were dissolved by 10% formic acid, and light absorption at a wavelength of 415 nm was observed.
An osteoblastic cell strain MC3T3-E1 was cultured on α-MEM (growth medium) containing 5 FBS and 10 μg/mL gentamicin. When the cell became confluent, the cell was collected by 0.25 trypsin solution, and was subjected to seeding to a 96-well plate at 1×10^4/0.2 mL/well with the growth medium. After 24 hours incubation, the culture medium was replaced with a growth medium (differentiation medium) containing 50 μg/mL ascorbic acid, 10 mmol/L β-glycerophosphoric acid, and 10 nmol/L dexamethasone. At the same time, CS-A, CS-C or CS-D dissolved and diluted by a phosphate buffered saline (PBS (−)) was added to the medium. After 10 days passed from when the medium was replaced with the differentiation medium, a culture supernatant was eliminated, the cell was rinsed by PBS (−), and dissolved by 1% NP-40 (registered trademark), and a cell lysate was collected. The cell on the plate was fixed by 15% formalin, a calcified matrix was dyed by 40 mmol/L alizarin red dyeing (pH 4.2) liquid, and then rinsed by pure water. Alizarin red pigments in the plate were dissolved by 10% formic acid, and light absorption at a wavelength of 415 nm was observed.

For test [2] the test system is unchanged. Nature of the test: Alkaline phosphatase (ALP) activity of cultured osteoblastic cell. The class given is cell-based, mouse. The note with it: MC3T3-E1, differentiation medium, 8 days, p-NP amount (FIG. 3). How it is done: An osteoblastic cell strain MC3T3-E1 was cultured on α-MEM (growth medium) containing 5% FBS and 10 μg/mL gentamicin. When the cell became confluent, the cell was collected by 0.25 trypsin solution, and was subjected to seeding to a 48-well plate at 8×10^4/0.5 mL/well with the growth medium. After 24 hours incubation, the culture medium was replaced with a growth medium (differentiation medium) containing 50 μg/mL ascorbic acid, 10 mmol/L β-glycerophosphoric acid, and 10 nmol/L dexamethasone. At the same time, CS-C or CS-E used in the first example was dissolved and diluted by a phosphate buffered saline (PBS (−)), and then added to the medium. After 8 days passed from when the medium was replaced with the differentiation medium, a culture supernatant was eliminated, the cell was rinsed by PBS (−), and dissolved by 1% NP-40 (registered trademark), and a cell lysate was collected.
Regarding alkaline phosphatase (ALP) activity, a p-nitrophenol (p-NP) amount created by mixing the cell lysate with p-nitrophenylphosphate (Sigma) and by performing incubation on it for 10 minutes at 37° C. was measured at OD 415 nm, and a p-NP amount was calculated from an analytical curve.

Test [3] has the same test system. The experiment in a line: Growth of cultured osteoblastic cell (DNA amount, PicoGreen). The class given is cell-based, mouse. The note with it: MC3T3-E1, differentiation medium, 16 days (FIG. 4). As to the method: An osteoblastic cell strain MC3T3-E1 was cultured on α-MEM (growth medium) containing 5% FBS and 10 μg/mL gentamicin. When the cell became confluent, the cell was collected by 0.25% trypsin solution, and was subjected to seeding to a 96-well plate at 4×10^4/0.2 mL/well with the growth medium. After 24 hours incubation, the culture medium was replaced with a growth medium (differentiation medium) containing 50 μg/mL ascorbic acid, 10 mmol/L β-glycerophosphoric acid, and 10 nmol/L dexamethasone. At the same time, CS-A, CS-C, CS-D or CS-E used in the first example and the second example was dissolved and diluted by a phosphate buffered saline (PBS (−)), and then added to the medium. After 16 days passed from when the medium was replaced with the differentiation medium, a culture supernatant was eliminated, the cell was rinsed by PBS (−), and dissolved by 1% NP-40, and a cell lysate was collected.
Regarding a measurement of a DNA amount, PicoGreen dsDNA Quantitation kit (made by Molecular Probes corporation) was used, and a DNA amount was measured from a fluorescence intensity (Ex: wavelength 485 nm, Em: wavelength 535 nm) with a Calf Thymus DNA (Sigma) being as a standard.

Test [4] deals with MC3T3-E1 cell. Nature of the test: Calcification of osteoblastic cell cultured on calcium phosphate (OCP or HA coating). It is filed as cell-based, mouse. How it is done: (§1) Octacalcium phosphate (OCP) and hydroxyapatite (HA, apaceram, made by pentax corporation) were broken into powders by a mortar, and powders which passed through a stainless mesh (pore size: 53 μm) were used for the test. 1 mg of OCP or HA powders were suspended in 1 mL of distilled water, and added to a 48-well plate 150 μL by 150 μL (0.15 mg/well). It was dried for one night at 80° C. by a dryer, sterilized by 70% ethanol, and used for the test.
(§2) An MC3T3-E1 cell was cultured on α-MEM (growth medium) containing 5% FBS and 10 μg/mL gentamicin. When the cell became confluent, the cell was collected by 0.25 trypsin solution, and was subjected to seeding to a 48-well plate at 8×10^4/0.5 […] with the growth medium. […] Regarding a measurement of a DNA amount, PicoGreen dsDNA Quantitation kit (made by Molecular Probes corporation) was used, and a DNA amount was measured from a fluorescence intensity (Ex: wavelength 485 nm, Em: wavelength 535 nm) with a Calf Thymus DNA (Sigma) being as a standard.
Regarding an evaluation of calcification, a calcified matrix produced by the cell on the plate was fixed by 15% formalin, dyed by 40 mmol/L alizarin red dyeing (pH 4.2) liquid, rinsed by deionization water, dissolved by 10% formic acid, and then light absorption was measured.

Test [5] relates to swine knee joint cartilage cell. The experiment in a line: Collagen synthesis of cultured cartilage cell in alginate gel beads (three-dimensional culturing). The class given is cell-based. Particulars: 100 μg/mL. From the text:
A cartilage cell was separated from a swine knee joint cartilage as follow. A posterior leg of an LWD-kind pig about 1-year-old was purchased from SIMODA animal industry limited private company. After a knee joint was exposed, a joint cartilage of a femur was acquired aseptically. Thereafter, a cell originating from a joint cartilage (hereinafter, “cartilage cell”) was separated in accordance with a technique of Mok S. S. et al (J. Biol. Chem., 1994, 269, 33021 to 33027) while modifying some parts of such a technique.
The acquired cartilage was put into DMEM/F-12 culture medium (a culture medium which contained Dulbecco's modified eagle and Ham's F12 at 1:1) containing 0.4% actinase (made by KAKEN pharmaceutical corporation) and 10 μg/mL gentamicin (made by Invitrogen corporation), and processed for 1 hour at 37° C. while being stirred by a stirrer under a condition where 5% of CO2 was present. After the culture medium was eliminated, a culture media containing 0.025% collagenase (made by Roche corporation) and 5% FBS (made by Biological Industries corporation) was added to a residue, and it was digested for 16 hours at 37° C. under the presence of 5% of CO2. After digested, the cell was rinsed, collected by 70 μm cell strainer (made by Becton Dickinson corporation), and a number of cells were measured using a counting chamber. […]

Test [6] deals with MC3T3-E1 cell. The experiment in a line: Growth of osteoblastic cell cultured on calcium phosphate (OCP or HA coating), DNA amount. It is filed as cell-based, mouse. How it is done:
as §1
as §2, with “medium. After 24 hours incubation, the culture medium was replaced with a growth medium (differentiation medium) containing 50 μg/mL ascorbic acid, 10 mmol/L β-glycerophosphoric acid, and 10 nmol/L dexamethasone, while at the same time CS-E was added.” for “medium.”

Setting [7] is: 16th day of cultivation, 48-well plate, absorption 415 nm (FIG. 1).
Setting [8] is: 10 days, 96-well plate, absorption 415 nm (FIG. 2).

On to chondroitin sulfate B [CS-B], for which the “formation of a calcified matrix dyed by alizarin red” value (from here on “formation of a calcified matrix dyed”) in test [1] (setting [7]) is reported as “not observed”.
Same read-out and setting: the same measure for polysulfated chondroitin sulfate [CPS]: “significantly promoted”.
As for “chondroitin sulfate C [CS-C, reference compound]”, the “ALP activity (osteoblastic cell differentiation marker)” value in test [2] is “not observed”. In test [3], the “growth of an osteoblastic cell (DNA amount)” value (from here on “growth of an osteoblastic cell”) is recorded as “not observed”. For the same substance, the “formation of a calcified matrix dyed” value in test [1] (setting [7]) and in test [1] (setting [8]) was “not observed” each time.
Consider chondroitin sulfate H [CS-H], for which, in test [1] (setting [7]), the “formation of a calcified matrix dyed” value is given as “significantly promoted”.
With Chondroitin sulfate A [CS-A], the “growth of an osteoblastic cell” value in test [3] is reported as “not observed”. The “formation of a calcified matrix dyed” value in test [1] (setting [7]) and in test [1] (setting [8]) was “not observed” in each case.
Take chondroitin sulfate D [CS-D]: the “growth of an osteoblastic cell” value in test [3] was “not observed”. Also, the “formation of a calcified matrix dyed” value in test [1] (setting [8]) is “significantly promoted”.
As to chondroitin sulfate E [CS-E], the “production of a calcified matrix dyed by alizarin red” value in test [4] (HA coating, 12th day of cultivation (FIG. 5B)) is recorded as “promoted production of a calcified matrix”; in test [4] (OCP coating, 16th day of cultivation (FIG. 5A)), “promoted production of a calcified matrix”. For the same substance, the “ALP activity (osteoblastic cell differentiation marker)” value in test [2] was “significantly enhanced”. The “collagen content per twenty alginate gel beads” value in test [5] (6 days three-dimensional culturing (FIG. 7)) is listed as “significantly increased”. Moreover, in test [5] (6 days three-dimensional culturing (FIG. 8)), the “collagen content per DNA” value is reported as “significantly increased”. For the same substance, the “growth of an osteoblastic cell” value in test [3] is on record as “significantly promoted”; in test [6] (HA coating (FIG. 6B)) it was “not significant but a cell growth promoting action was observed”; in test [6] (OCP coating, 16th day of cultivation (FIG. 6A)) it was “significantly promoted”. In addition, in test [1] (setting [7]), the “formation of a calcified matrix dyed” value is listed as “significantly promoted”.

For the origin of these results see US20110129544A1, “Bone/Cartilage Formation-Stimulation Agent” (priority 2007, published 2011).
